Measurements from ChEMBL document CHEMBL5096183, “Contemporary advances of cyclic molecules proposed for inflammation” (Eur J Med Chem, 2021).

Experiments:
[1] = system: RAW264.7; assay: Anti-inflammatory against LPS induced mouse RAW 264.7 cells assessed as inhibition of IL-6 measured for 24 hrs by ELISA analysis; format: functional, cell-based; conditions: RAW264.7, 24 h
[2] = system: RAW264.7; assay: Anti-inflammatory against LPS induced mouse RAW 264.7 cells assessed as inhibition of NO measured for 24 hrs by ELISA analysis; format: functional, cell-based; conditions: RAW264.7, 24 h
[3] = system: RAW264.7; assay: Anti-inflammatory against LPS induced mouse RAW 264.7 cells assessed as inhibition of IL-1beta measured for 24 hrs by ELISA analysis; format: functional, cell-based; conditions: RAW264.7, 24 h
[4] = system: Rattus norvegicus; assay: Antiulcer activity against ulceration induced albino Wistar rat assessed as ulcerogenic index pretreated daily at 25 mg/kg for 4 days followed by 24 hrs fasting prior to pylorus ligation measured after 4 hrs; format: functional; conditions: time 124 hrs
[5] = system: Rattus norvegicus; assay: Anti-inflammatory activity against carrageenan-induced paw edema in Sprague-Dawley rat at 30 mg/kg, IP pretreated for 30 mins followed by carrageenan addition measured after 4 hrs relative to control; format: functional; conditions: time 4.5 hrs
[6] = system: Erythrocyte; assay: Anti-inflammatory against heat induced human red blood cells assessed as inhibition of heat induced hemolysis by measuring membrane stabilization for at 100 ug/ml incubated for 30 mins relative to control; format: functional; conditions: 0.5 h
[7] = species on record: Homo sapiens; assay: Inhibition of proteinase (unknown origin) at 100 ug/ml using casein as substrate preincubated for 5 mins followed by addition of substrate for 20 mins relative to control; conditions: dose 100.0 µg/ml
[8] = system: Rattus norvegicus; assay: Anti-inflammatory activity against carrageenan-induced hind paw edema in rat at 20 mg/kg, PO measured after 5 hrs relative to control; format: functional
[9] = system: RAW264.7; assay: Anti-inflammatory activity against LPS induced mouse RAW264.7 cells assessed as suppression of TNFalpha cytokine level at 20 uM incubated for 24 hrs by ELISA assay relative to control; format: functional
[10] = system: Rattus norvegicus; assay: Acute anti-inflammatory activity against carrageenan induced paw edema in Albino rat at 20 mg/kg, po pretreated for 30 mins followed by carrageenan addition measured every hour for 3 hrs by plethysmography method relative to control; format: functional; conditions: time 3.5 hrs
[11] = system: Rattus norvegicus; assay: Anti-inflammatory activity against Cotton pellets induced granuloma in Albino rat at 20 mg/kg, po administered for 7 days measured on day 8 by measuring pellet weight relative to control; format: functional; conditions: time 8 day
[12] = Inhibition of soy 15-LOX enzyme immunoassay; design: species or system Glycine max
[13] = system: Rattus norvegicus; assay: Anti-inflammatory activity against carrageenan-induced paw edema in rat relative to control; format: functional
[14] = system: Rattus norvegicus; assay: Anti-inflammatory activity against formalin-induced foot paw edema in Wistar rat assessed as oedema inhibition at 10 mg/kg,po measured after 1 hrs by plethysmometric analysis relative to control; format: functional
[15] = system: Rattus norvegicus; assay: Anti-inflammatory activity against formalin-induced foot paw edema in Wistar rat assessed as oedema inhibition at 10 mg/kg,po measured after 3 hrs by plethysmometric analysis relative to control; format: functional
[16] = system: Rattus norvegicus; assay: Anti-inflammatory activity against formalin-induced foot paw edema in Wistar rat assessed as oedema inhibition at 10 mg/kg,po measured after 6 hrs by plethysmometric analysis relative to control; format: functional
[17] = system: Rattus norvegicus; assay: Anti-inflammatory activity against carrageenan induced paw edema in rat assessed as inhibition of paw edema at 12.5 mg/kg,PO pretreated for 1 hrs followed by carrageenan addition for 4 hrs by plethysmographic analysis relative to control; format: functional; conditions: time 5 hrs
[18] = biological target: Epidermal growth factor receptor (Homo sapiens, UniProt P00533); assay: Inhibition of recombinant EGFR (unknown origin) expressed in baculovirus incubated for 10 mins by europium-labeled antiphosphotyrosine/enhancement solution based assay
[19] = Inhibition of mouse full-length GST-tagged BRAF V600E mutant incubated for 1 hrs
[20] = system: Rattus norvegicus; assay: Anti-inflammatory activity against carrageenan-induced paw edema in Wistar albino rat at 10 mg/kg, po pretreated for 1 hr followed by carrageenan addition measured after 6 hrs by plethysmometer relative to control; format: functional; conditions: time 7 hrs
[21] = system: Rattus norvegicus; assay: Anti-inflammatory activity against carrageenan-induced paw edema in po dosed Wistar rat pretreated for 1 hrs followed by carrageenan addition measured after 3 hrs; format: functional; conditions: time 4 hrs
[22] = system: Mus musculus; assay: Analgesic activity in hot plate induced thermal pain Swiss albino mouse model assessed as change in latency at 10 mg/kg, po measured at 1 to 2 hrs relative to control; format: functional; conditions: time 1-2 hrs
[23] = system: Mus musculus; assay: Analgesic activity in albino […] mouse assessed as increase in reaction on paw licking at 100 mg/kg, po pretreated for 1 hrs followed by hot plate treatment measured after 90 mins by analgesiometer based analysis relative to control; format: functional; conditions: time 2.5 hrs
[24] = system: Rattus norvegicus; assay: Anti-inflammatory activity against carrageenan-induced paw edema in Wistar rat at 20 mg/kg, po assessed as paw edema volume measured after 4 hrs by plethysmometric analysis relative to control; format: functional
[25] = system: Rattus norvegicus; assay: Anti-inflammatory activity against carrageenan-induced paw edema in PO dosed Wistar albino rat assessed as edema inhibition percentage measured for 2 hrs relative to control; format: functional
[26] = system: Rattus norvegicus; assay: Anti-inflammatory activity against carrageenan-induced paw edema in PO dosed Wistar albino rat measured after 2 hrs; format: functional
[27] = system: Rattus norvegicus; assay: Acute ulcerogenic activity in 18 hrs fasted Wistar rat at 60 mg/kg, po treated for 6 hrs relative to control; format: functional
[28] = system: Rattus norvegicus; assay: Anti-inflammatory activity against carrageenan-induced paw edema in Wistar albino rat model assessed as inhibition of paw edema at 20 mg/kg, PO relative to control; format: functional

Sequence of Epidermal growth factor receptor (P00533 whole entry): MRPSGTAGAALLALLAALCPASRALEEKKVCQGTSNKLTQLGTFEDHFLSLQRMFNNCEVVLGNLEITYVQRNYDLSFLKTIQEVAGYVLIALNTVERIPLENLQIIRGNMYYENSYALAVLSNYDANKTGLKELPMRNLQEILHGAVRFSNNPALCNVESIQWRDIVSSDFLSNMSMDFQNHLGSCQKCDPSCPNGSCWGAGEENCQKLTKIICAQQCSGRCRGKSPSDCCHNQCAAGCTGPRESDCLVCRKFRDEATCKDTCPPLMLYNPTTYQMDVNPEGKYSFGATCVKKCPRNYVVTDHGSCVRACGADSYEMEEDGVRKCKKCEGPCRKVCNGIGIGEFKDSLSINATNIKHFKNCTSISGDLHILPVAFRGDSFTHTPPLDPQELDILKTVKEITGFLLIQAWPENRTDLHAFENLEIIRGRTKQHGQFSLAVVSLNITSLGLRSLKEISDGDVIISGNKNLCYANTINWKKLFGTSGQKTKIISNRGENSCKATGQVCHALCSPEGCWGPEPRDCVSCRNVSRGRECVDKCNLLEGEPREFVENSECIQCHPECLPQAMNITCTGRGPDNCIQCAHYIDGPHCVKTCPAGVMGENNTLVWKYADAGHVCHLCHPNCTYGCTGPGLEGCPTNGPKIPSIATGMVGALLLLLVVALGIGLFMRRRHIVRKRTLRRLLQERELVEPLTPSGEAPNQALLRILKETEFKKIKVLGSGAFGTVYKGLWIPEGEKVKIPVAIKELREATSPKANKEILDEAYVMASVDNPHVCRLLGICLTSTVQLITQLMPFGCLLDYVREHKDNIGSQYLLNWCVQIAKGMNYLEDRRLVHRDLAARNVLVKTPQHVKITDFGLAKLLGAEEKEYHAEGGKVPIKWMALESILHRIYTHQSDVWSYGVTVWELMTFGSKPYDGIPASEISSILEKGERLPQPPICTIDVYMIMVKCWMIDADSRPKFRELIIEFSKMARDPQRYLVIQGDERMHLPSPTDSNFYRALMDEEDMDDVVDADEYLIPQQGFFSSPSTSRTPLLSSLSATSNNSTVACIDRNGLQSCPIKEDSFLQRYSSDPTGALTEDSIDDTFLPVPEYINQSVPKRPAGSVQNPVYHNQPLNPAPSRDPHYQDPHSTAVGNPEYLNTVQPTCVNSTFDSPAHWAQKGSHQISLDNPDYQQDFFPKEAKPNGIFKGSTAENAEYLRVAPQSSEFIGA

What does the source list for `CN(C)c1cccc2c(S(=O)(=O)Oc3cccc4oc(=O)[nH]c34)cccc12`?
IC50 [1]: 8.61 µM; IC50 [2]: 17.7 µM; IC50 [3]: 20.1 µM

Which Activity [4] does the source give for `Nc1cc(-c2ccccc2)nn1C(=O)c1csc(-c2ccccc2)n1` here?
The Activity was 0.44.

Which inhibition in vivo at 30 mg/kg [5] does the source give for `CCOC(=O)CSc1nnc(Cc2ccccc2)n1C1CCCCC1` here?
Its inhibition in vivo at 30 mg/kg is 62.5%.

With `C(=N\c1ccccc1-c1nc2ccccc2o1)/c1cccs1` as the molecule, how does the inhibition at 100 µg/mL [6] read?
The inhibition at 100 µg/mL was 70.2%.

What about the inhibition [7] of the same molecule?
Its inhibition is 75.2%.

What does the source list for `O=Cc1cc2cccc(-c3nc4ccccc4o3)c2nc1Cl`?
inhibition at 100 µg/mL [6]: 74.3%; inhibition [7]: 80.2%

What does the source list for `O=C1/C(=C\c2ccc(F)cc2)C=C(c2ccc(F)cc2)N1Cc1ccc(F)cc1`?
inhibition in vivo at 20 mg/kg [8]: 76.2%; Activity [9]: 65.03%

Which Activity [10] does the source give for `O=C(CCN1CCN(c2ccc([N+](=O)[O-])cc2)CC1)Nc1ccc2oc(Cc3ccc(Cl)cc3)nc2c1` here?
The Activity was 81.7%.

And the Activity [11]?
Its Activity is 44%.

For `Cc1ccc(Cl)c(Nc2ccccc2C(=O)O)c1Cl` [MECLOFENAMATE SODIUM], which IC50 [12] is on record?
The IC50 was 5.64 µM.

For `O=C(O)Cc1ccccc1Nc1c(Cl)cccc1Cl` [DICLOFENAC], which Activity [13] is on record?
Its Activity is 85.6%.

And the inhibition in vivo at 10 mg/kg [14]?
The inhibition in vivo at 10 mg/kg was 41.7%.

And the inhibition in vivo at 10 mg/kg [15]?
The inhibition in vivo at 10 mg/kg was 40.7%.

What about the inhibition in vivo at 10 mg/kg [16] of the same molecule?
Its inhibition in vivo at 10 mg/kg is 41.7%.

And the inhibition in vivo at 12.5 mg/kg [17]?
Its inhibition in vivo at 12.5 mg/kg is 94%.

For `O=C1/C(=C\c2ccc(F)cc2)C=C(c2ccc(F)cc2)N1Cc1ccccc1Cl`, which inhibition in vivo at 20 mg/kg [8] is on record?
Its inhibition in vivo at 20 mg/kg is 71.5%.

What about the Activity [9] of the same molecule?
The Activity was 60.9%.

What does the source list for `Cc1ccc(/C=N/NC(=O)CNc2nc(-c3ccccc3)c(-c3ccccc3)s2)cc1`?
IC50 [18]: 0.2 µM; IC50 [19]: 1.7 µM

For `CC(C)Cc1ccc(C(C)C(=O)c2ccc(OCc3cn(Cc4ccc([N+](=O)[O-])cc4)nn3)cc2O)cc1` (centres undefined), which inhibition in vivo at 10 mg/kg [20] is on record?
The inhibition in vivo at 10 mg/kg was 94.2%.

With `S=c1oc(-c2csc(-c3ccccc3)n2)nn1CN1CCCCC1` as the molecule, how does the Activity [4] read?
Its Activity is 0.44.

For `O=C(CCN1CCN(c2cccc(Cl)c2Cl)CC1)Nc1ccc2oc(Cc3ccc(Cl)cc3)nc2c1`, which Activity [10] is on record?
Its Activity is 77.6%.

What about the Activity [11] of the same molecule?
The Activity was 39.3%.

With `CC(C(=O)O)C(O)(c1ccccc1)c1ccccc1` (centres undefined) as the molecule, how does the ED50 [21] read?
Its ED50 is 15 µmol/kg.

Which inhibition in vivo at 10 mg/kg [22] does the source give for `CN1C(C(=O)Nc2ccccn2)=C(O)c2ccccc2S1(=O)=O` [PIROXICAM] here?
The inhibition in vivo at 10 mg/kg was 75%.

Which inhibition in vivo at 20 mg/kg [8] does the source give for `COc1ccc2c(c1)c(CC(=O)O)c(C)n2C(=O)c1ccc(Cl)cc1` [INDOMETHACIN] here?
The inhibition in vivo at 20 mg/kg was 81%.

What about the Activity [9] of the same molecule?
Its Activity is 68.84%.

What about the Activity [23] of the same molecule?
Its Activity is 85.84%.

And the inhibition in vivo at 20 mg/kg [24]?
The inhibition in vivo at 20 mg/kg was 81.9%.

Which “inhibition (INH)” value [25] does the source give for `CC1=NN(c2ccccc2C(=O)O)C(=O)/C1=N/Nc1ccc(S(N)(=O)=O)cc1` here?
The value was 54.54%.

And the ED50 [26]?
The ED50 was 44 µmol/kg.

What does the source list for `CC(C)Cc1ccc(C(C)C(=O)O)cc1` (centres undefined) [IBUPROFEN]?
ED50 [21]: 15 µmol/kg; inhibition in vivo at 10 mg/kg [20]: 94.7%; Activity [27]: 69.5%; inhibition in vivo at 20 mg/kg [28]: 65.9%
